{"source": "patent US6777193B1", "about": "“Methods for diagnostic and/or treatment of antiphospholipids antibodies-related diseases, and devices” (Escuela Nacional de Ciencias Biologicas, del Instituto …, priority 2000, dated 2004)", "key": {"[1]": {"system": "anti-lipidic particles antibodies from sera of patients with the antiphospholipid syndrome", "test": "Hapten inhibition of anti-lipidic particles antibodies from patients' sera (liposomal-ELISA)", "assay_type": "binding, human", "conditions": "0.2 μmoles hapten, 30 min at 30° C.", "experimental": "(§1) Costar microtiter plates, with 96 flat-bottom wells with a high lipidic antigens binding property (Costar Co. Cambrige, USA) were coated by the addition to each one of the wells of 100 μl of liposomes made from egg-yolk phosphatidylcholine:phosphatidate (2:1 molar ratio) in Tris-NaCl buffer (10 mM, 1 mM) pH 7, containing 0.1 μmol of phosphatidate, and treated with 5 mM CaCl2 to induce lipidic particles formation.\nAliquots of 100 μl of patients' sera that were analyzed in Examples 1 and 2B were incubated with 100 μl of 0.2 μmoles of glycerolphosphorylcholine for 30 min at 30° C. Later on, blocked patients sera were added to the wells of the microtiter plate and the liposomal-ELISA method was applied as it was described in Example 1. Peroxidase-conjugated goat anti-Fc of human IgG, IgA and IgM antibodies were used as second antibody."}, "[2]": {"system": "BALB/c female mice", "test": "Treatment of the pathology induced by H308 monoclonal antibody in mice", "assay_type": "in vivo, mouse", "experimental": "H308 monoclonal antibody was administered by intraperitoneal injection of 1 μg each week during two months to BALB/c female mice, and simultaneously the glycerolphosphorylcholine hapten was administered at 2.5 mg/Kg, of body weight, doses by intravenous injection each 24 hs, for 2-months.\nSpermidine was administered, as chlorhydrate, in a dose of 1 mg/Kg, of body weight, by intraperitoneal injection each 24 hs, during two months."}, "[3]": {"system": "H308 monoclonal antibody", "test": "Inhibition of H308 monoclonal antibody by phosphorylated haptens (liposomal-ELISA)", "assay_type": "binding, mouse", "conditions": "0.2 μmoles of hapten", "experimental": "Studies on inhibition of anti-lipidic particles antibodies were carried out using liposomes as antigens and the antigen-antibody reaction was analyzed by the liposomal-ELISA method, which includes the following steps:\nA) A first step of addition and incubation, in which an effective quantity of an antigen suspension is added to each one of the wells of the ELISA microtiter plate. This microtiter plate is selected among those with a high lipidic antigens binding property and said microtiter plate is incubated between 25 to 30° C. for 0.25 to 2 h.\nB) A second step of addition and incubation, in which an effective quantity of a blocking solution is added to each one of the wells of the ELISA microtiter plate with a high lipidic antigens binding property, and said microtiter plate being incubated at a temperature between 25 to 30° C. for 0.25 to 2 h.\nC) A step of elimination of blocking solution, preferably by suction, avoiding that microtiter plate becomes dry when blocking solution is eliminated, because liposomal antigens can be damaged.\nD) A step of inhibition of the antibody porter, in which the antibody porter is incubated with a chemical substance, or hapten, that will inhibit the active site that recognizes the antigen in the antibody porter.\nE) A third step of addition and incubation, in which an effective quantity of the antibody porter inhibited by the hapten was quickly added, to avoid that microtiter plate becomes dry, to each one of the wells using an antibody porter dilution from 1:5 to 1:1000 into blocking solution. This microtiter plate being incubated for 0.25 to 2 h at a temperature between 25 to 30° C.\nF) A first step of washing, in which the microtiter plate is washed with the blocking solution, preferably repeating 4-times and avoiding that microtiter plate becomes dry when eliminating the blocking solution.\nG) A fourth step of addition and incubation, in which an effective quantity of a second antibody is added to each one of the wells of microtiter plate. This plate is incubated in the darkness for 0.25 to 2 h at a temperature between 25 to 30° C. Second antibody is selected preferably among antibodies from a different specie to that of the antibody porter and they can be anti-Fc of human IgG, IgA and IgM or of the animal in study, or antibodies anti-Fc of IgM or of IgG depending on the nature of the monoclonal antibody when this is the antibody porter. Second antibody is used in a final dilution into blocking solution between […] and 1:3500 and it is conjugated to an enzyme preferably to peroxidase.\nH) A second step of washing, in which the microtiter plate is washed with the blocking solution, preferably repeating 4-times and avoiding that microtiter plate becomes dry when eliminating the blocking solution.\nI) A fifth step of addition and incubation, in which an effective quantity of the peroxidase sustrates is added to each one of the wells and this microtiter plate is incubated for 0.1 to 0.5 h at a temperature between .35 and 40° C., stopping the peroxidase reaction by adding an effective quantity of sulfuric acid.\nJ) A step of analysis, in which microtiter plate is analyzed using a reading device for ELISA plates, preferably at 492 nm.\nIn a specific embodiment, the hapten solution is obtained dissolving hapten in a buffer solution at pH between 7.0 and 7.4, in a relationship from 0.1 to 10 mmoles of hapten per liter of buffer solution.\nas §1, with “formation. Microtiter plates were incubated at room temperature for 1 h and they were blocked for 1 h at room temperature in a similar way as was described in Example 1. […]” for “formation.”"}}, "data": [{"smiles": "C[N+](C)(C)CCOP(=O)([O-])OC[C@H](O)CO", "note": "[glycerolphosphorylcholine]", "values": [{"measurement": "inhibition in the immunoreaction of patients sera with lipidic particles in liposomes", "setting": "[1]", "value": 100, "unit": "%"}, {"measurement": "inhibition of the development of mice pathology by H308 monoclonal antibody", "setting": "[2]; hapten 2.5 mg/Kg intravenous each 24 hs for 2-months, H308 1 μg i.p. each week", "value": 40, "unit": "%"}, {"measurement": "therapeutically effective quantity", "setting": "[2]; of body weight, BALB/c female mice given H308", "value": 2.5, "unit": "mg/kg"}, {"measurement": "inhibition of H308 monoclonal antibody", "setting": "[3]", "value": 100, "unit": "%"}]}]}
